Measured values published in ChEMBL document CHEMBL1145662, “Catharanthus alkaloids, XXXVIII. Confirming structural evidence and antineoplastic activity of the bisindole alkaloids leurosine-N'b-oxide (pleurosine), roseadine and vindolicine from Catharanthus roseus” (J Nat Prod, 1983).

Tests used:
CX-1 [1] = test: Antitumor activity against human CX-1 cells xenografted in Swiss nu/nu athymic mouse at 20 mg/kg on 4th,8th,12th and 16th day relative to control; format: functional
L1210 [2] = test: Antitumor activity against mouse L1210 cells xenografted in CD2F1 mouse at 5 mg/kg for 1 to 9 days relative to control; format: functional
P388 [3] = test: Antitumor activity against mouse P388 cells xenografted in CD2F1 mouse at 8 mg/kg after 1 day relative to control; format: functional
P388 [4] = test: Antitumor activity against mouse P388 cells xenografted in CD2F1 mouse at 6.25 mg/kg for 1 to 9 days relative to control; format: functional
P388 [5] = test: Antitumor activity against mouse P388 cells xenografted in CD2F1 mouse at 4 mg/kg after 1 day relative to control; format: functional
MC-38 [6] = test: Antitumor activity against mouse Colon 38 cells xenografted in Swiss mouse at 10 mg/kg for 1 to 2 days relative to control; format: functional
CX-1 [7] = test: Antitumor activity against human CX-1 cells xenografted in Swiss nu/nu athymic mouse at 40 mg/kg on 4th,8th,12th and 16th day relative to control; format: functional
B16 [8] = test: Antitumor activity against mouse B16 cells xenografted in B6C3F1 mouse at 2.5 mg/kg for 1 to 9 days relative to control; format: functional
B16 [9] = test: Antitumor activity against mouse B16 cells xenografted in B6C3F1 mouse at 5 mg/kg for 1 to 9 days relative to control; format: functional
P388 [10] = test: Antitumor activity against mouse P388 cells xenografted in CD2F1 mouse at 16 mg/kg after 1 day relative to control; format: functional
L1210 [11] = test: Antitumor activity against mouse L1210 cells xenografted in CD2F1 mouse at 20 mg/kg for 1 to 9 days relative to control; format: functional
MC-38 [12] = test: Antitumor activity against mouse Colon 38 cells xenografted in Swiss mouse at 5 mg/kg for 1 to 2 days relative to control; format: functional
CX-1 [13] = test: Antitumor activity against human CX-1 cells xenografted in Swiss nu/nu athymic mouse at 160 mg/kg on 4th,8th,12th and 16th day relative to control; format: functional
MC-38 [14] = test: Antitumor activity against mouse Colon 38 cells xenografted in Swiss mouse at 20 mg/kg for 1 to 2 days relative to control; format: functional
P388 [15] = test: Antitumor activity against mouse P388 cells xenografted in CD2F1 mouse at 12.5 mg/kg on 3rd, 6th and 9th day relative to control; format: functional
L1210 [16] = test: Antitumor activity against mouse L1210 cells xenografted in CD2F1 mouse at 10 mg/kg for 1 to 9 days relative to control; format: functional
P388 [17] = test: Antitumor activity against mouse P388 cells xenografted in CD2F1 mouse at 32 mg/kg after 1 day relative to control; format: functional
P388 [18] = test: Antitumor activity against mouse P388 cells xenografted in CD2F1 mouse at 25 mg/kg on 3rd, 6th and 9th day relative to control; format: functional
Mus musculus = test: Toxicity in mouse P388 cells xenografted in CD2F1 mouse at 20 mg/kg; format: organism-based; parameters: dose 20 mg/kg; conditions: in vivo
CX-1 [19] = test: Antitumor activity against human CX-1 cells xenografted in Swiss nu/nu athymic mouse at 80 mg/kg on 4th,8th,12th and 16th day relative to control; format: functional
P388 [20] = test: Antitumor activity against mouse P388 cells xenografted in CD2F1 mouse at 6.25 mg/kg on 3rd, 6th and 9th day relative to control; format: functional
P388 [21] = test: Antitumor activity against mouse P388 cells xenografted in CD2F1 mouse at 25 mg/kg for 1 to 9 days relative to control; format: functional
B16 [22] = test: Antitumor activity against mouse B16 cells xenografted in B6C3F1 mouse at 10 mg/kg for 1 to 9 days relative to control; format: functional
P388 [23] = test: Antitumor activity against mouse P388 cells xenografted in CD2F1 mouse at 12.5 mg/kg for 1 to 9 days relative to control; format: functional
P388 [24] = test: Antitumor activity against mouse P388 cells xenografted in CD2F1 mouse at 2 mg/kg relative to control; format: functional
P388 [25] = test: Antitumor activity against mouse P388 cells xenografted in CD2F1 mouse at 1 mg/kg relative to control; format: functional
B16 [26] = test: Antitumor activity against mouse B16 cells xenografted in B6C3F1 mouse at 0.5 mg/kg relative to control; format: functional

CC[C@@]12C[N+]3([O-])CCc4c([nH]c5ccccc45)[C@@](C(=O)OC)(c4cc5c(cc4OC)N(C)[C@H]4[C@@](O)(C(=O)OC)[C@H](OC(C)=O)[C@]6(CC)C=CCN7CC[C@]54[C@@H]76)C[C@@H](C[C@@H]1O2)C3
T/C (CX-1 [1]): 81% | T/C (L1210 [2]): 101% | T/C (P388 [3]): 161% | T/C (P388 [4]): 154% | T/C (P388 [5]): 142% | T/C (MC-38 [6]): 108% | T/C (CX-1 [7]): 60% | T/C (B16 [8]): 189% | T/C (B16 [9]): 261% | T/C (P388 [10]): 193% | T/C (L1210 [11]): 112% | T/C (MC-38 [12]): 84% | T/C (CX-1 [13]): 71% | T/C (MC-38 [14]): 82% | T/C (P388 [15]): 177% | T/C (L1210 [16]): 133% | T/C (P388 [17]): 140% | T/C (P388 [18]): 181% | Activity (Mus musculus): Toxic | T/C (CX-1 [19]): 85% | T/C (P388 [20]): 168% | T/C (P388 [21]): 181% | T/C (B16 [22]): 309% | T/C (P388 [23]): 163%

CC[C@]1(O)CN2CCc3c([nH]c4ccccc34)[C@@H]1[C@@H](/C=C(\C(=O)OC)c1cc3c(cc1OC)N(C)C1[C@]34CCN3CC=C[C@](CC)(C34)[C@@H](OC(C)=O)[C@]1(O)C(=O)OC)C2 (some centres not stated) [ROSEADINE]
T/C (P388 [24]): 176%

CC[C@@H]1C[C@H]2CN(CCc3c([nH]c4ccccc34)[C@@](C(=O)OC)(c3cc4c(cc3OC)N(C)[C@H]3[C@@](O)(C(=O)OC)[C@H](OC(C)=O)[C@]5(CC)C=CCN6CC[C@]43[C@@H]65)C2)C1 [ROSEAMINE]
T/C (P388 [25]): 161%

CC[C@]1(O)C[C@@H]2CN(CCc3c([nH]c4ccccc34)[C@@](C(=O)OC)(c3cc4c(cc3OC)N(C)[C@H]3[C@@](O)(C(=O)OC)[C@H](OC(C)=O)[C@]5(CC)C=CCN6CC[C@]43[C@@H]65)C2)C1 [VINBLASTINE]
T/C (B16 [26]): 309%
